According to patent US20250230193A1, “CYCLIC COMPOUND HAVING SELECTIVE KRAS INHIBITORY EFFECT ON HRAS AND NRAS” (CHUGAI SEIYAKU KABUSHIKI KAISHA, priority 2022, published 2025):

How the values were obtained:
[1] = molecular target: GDP-bound NRAS wild-type protein (Homo sapiens, UniProt P01111); experiment: Binding to NRAS by surface plasmon resonance (SPR), Single Cycle Kinetics; details: SPR; KD ratio class
[2] = molecular target: GDP-bound HRAS wild-type protein (Homo sapiens, UniProt P01112); experiment: Binding to HRAS by surface plasmon resonance (SPR), Single Cycle Kinetics; details: SPR; KD ratio class
[3] = tested on: human lung cancer strain NCI-H441; experiment: cells; details: NCI-H441, 96 h, read-out: NCI-H441 IC50 (nM)

Sequence of GDP-bound HRAS wild-type protein (P01112 whole entry): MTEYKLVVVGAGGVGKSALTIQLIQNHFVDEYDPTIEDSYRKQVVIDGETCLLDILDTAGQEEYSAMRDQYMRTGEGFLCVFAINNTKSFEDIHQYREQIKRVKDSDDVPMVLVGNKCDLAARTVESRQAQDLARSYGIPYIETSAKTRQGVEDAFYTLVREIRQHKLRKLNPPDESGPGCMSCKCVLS
Sequence of GDP-bound NRAS wild-type protein (P01111 whole entry): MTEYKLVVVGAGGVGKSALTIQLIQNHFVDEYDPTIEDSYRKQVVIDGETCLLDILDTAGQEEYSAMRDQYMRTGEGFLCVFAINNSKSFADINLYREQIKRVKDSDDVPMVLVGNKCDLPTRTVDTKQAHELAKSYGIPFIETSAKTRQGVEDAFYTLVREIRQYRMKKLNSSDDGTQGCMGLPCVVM

Row | SMILES | NRAS/KRAS (ratio of KD value for GDP-bound NRAS wild-type protein to KD value for KRAS) [1] | HRAS/KRAS (ratio of KD value for GDP-bound HRAS wild-type protein to KD value for KRAS) [2] | IC50 [3]
1 | CCO[C@@H]1C[C@H]2C(=O)NC3(CCCC3)C(=O)N(C)[C@@H](C3CCCC3)C(=O)N(C)[C@H](C(=O)N3CCOCC3)CC(=O)N(C)[C@@H](CC)C(=O)N[C@@H]([C@@H](C)CC)C(=O)N(C)CC(=O)N(C)[C@H]3C[C@@H](C)[C@@H](C)CN(C3=O)[C@@H](Cc3ccc(C(F)(F)F)cc3)C(=O)N(C)CC(=O)N[C@@H](CCc3cc(F)c(C(F)(F)F)c(F)c3)C(=O)N2C1 [PP1353] | A (a compound having 10 or more and less than 20 is denoted as A) | B (a compound having 3 or more and less than 10 is denoted as B) | 3.7 nM
2 | CCO[C@@H]1C[C@H]2C(=O)NC3(CCC3)C(=O)N(C)[C@@H](C(CC)CC)C(=O)N(C)[C@H](C(=O)N3CCCC3)CC(=O)N(C)[C@@H](COC)C(=O)N[C@@H]([C@@H](C)CC)C(=O)N(C)CC(=O)N(C)[C@H]3C/C=C\CCN(C3=O)[C@@H](CC3CCC(F)(F)CC3)C(=O)N(C)CC(=O)N[C@@H](CCc3cc(F)c(C(F)(F)F)c(F)c3)C(=O)N2C1 [PP1440] | AA (a compound having 20 or more is denoted as AA) | A (a compound having 10 or more and less than 20 is denoted as A) | 69.7 nM
3 | CC[C@H](C)[C@@H]1NC(=O)[C@H](CC)N(C)C(=O)C[C@@H](C(=O)N2CCOCC2)N(C)C(=O)[C@H](C2CCCC2)N(C)C(=O)C2(CCCC2)NC(=O)[C@@H]2CCCN2C(=O)[C@H](CCc2cc(F)c(C(F)(F)F)c(F)c2)NC(=O)CN(C)C(=O)[C@H](Cc2ccc(C(F)(F)F)cc2)N2CC(C)[C@@H](C)C[C@@H](C2=O)N(C)C(=O)CN(C)C1=O (stereo partly drawn) [PP1350] | B (a compound having 3 or more and less than 10 is denoted as B) | B (a compound having 3 or more and less than 10 is denoted as B) | 20.1 nM
4 | CCO[C@@H]1C[C@H]2C(=O)NC3(CC(C)(C)C3)C(=O)N(C)[C@@H](C3CCCC3)C(=O)N(C)[C@H](C(=O)N(C)C)CC(=O)N(C)[C@@H](CC(C)C)C(=O)N[C@@H]([C@@H](C)CC)C(=O)N(C)CC(=O)N(C)[C@H]3C/C=C\CCN(C3=O)[C@@H](Cc3ccc(C(F)(F)F)cc3)C(=O)N(C)CC(=O)N[C@@H](CCc3ccc(C(F)(F)F)c(OC)c3)C(=O)N2C1 [PP1562] | A (a compound having 10 or more and less than 20 is denoted as A) | A (a compound having 10 or more and less than 20 is denoted as A) | 1.7 nM
5 | CCO[C@@H]1C[C@H]2C(=O)NC3(CCC3)C(=O)N(C)[C@@H](C3CCCC3)C(=O)N(C)[C@H](C(=O)N(C)C)CC(=O)N(C)[C@@H](CC3CCCC3)C(=O)N[C@@H]([C@@H](C)CC)C(=O)N(C)CC(=O)N(C)[C@H]3C/C=C\CCN(C3=O)[C@@H](Cc3ccc(F)cc3C)C(=O)N(C)CC(=O)N[C@@H](CCc3cc(F)c(C(F)(F)F)c(F)c3)C(=O)N2C1 [PP1530] | A (a compound having 10 or more and less than 20 is denoted as A) | B (a compound having 3 or more and less than 10 is denoted as B) | 17.2 nM
6 | CCO[C@@H]1C[C@H]2C(=O)NC3(CCC3)C(=O)N(C)[C@@H](C(CC)CC)C(=O)N(C)[C@H](C(=O)N(C)C)CC(=O)N(C)[C@@H](CC3CCCC3)C(=O)N[C@@H]([C@@H](C)CC)C(=O)N(C)CC(=O)N(C)[C@H]3C/C=C\CCN(C3=O)[C@@H](CC3CCC(F)(F)CC3)C(=O)N(C)CC(=O)N[C@@H](CCc3cc(F)c(C(F)(F)F)c(F)c3)C(=O)N2C1 [PP1431] | AA (a compound having 20 or more is denoted as AA) | A (a compound having 10 or more and less than 20 is denoted as A) | 41.2 nM
7 | CCO[C@@H]1C[C@H]2C(=O)NC3(CCC3)C(=O)N(C)[C@@H](C3CCCC3)C(=O)N(C)[C@H](C(=O)N3CCOCC3)CC(=O)N(C)[C@@H](CC)C(=O)N[C@@H]([C@@H](C)CC)C(=O)N3CC[C@H]3C(=O)N(C)[C@H]3C[C@@H](C)[C@@H](C)CN(C3=O)[C@@H](Cc3ccc(C(F)(F)F)cc3)C(=O)N(C)CC(=O)N[C@@H](CCc3cc(F)c(C(F)(F)F)c(F)c3)C(=O)N2C1 [PP1351] | A (a compound having 10 or more and less than 20 is denoted as A) | B (a compound having 3 or more and less than 10 is denoted as B) | 12.8 nM
8 | CCCCCC[C@H]1C(=O)N[C@@H]([C@@H](C)CC)C(=O)N(C)CC(=O)N(C)[C@H]2C/C=C\CCN(C2=O)[C@@H](Cc2ccc(C(F)(F)F)cc2)C(=O)N(C)CC(=O)N[C@@H](CCc2ccc3sccc3c2)C(=O)N2C[C@H](OCC)C[C@H]2C(=O)NC2(CCC2)C(=O)N(C)[C@@H](C2CCCC2)C(=O)N(C)[C@H](C(=O)N(C)C)CC(=O)N1C [PP1259] | A (a compound having 10 or more and less than 20 is denoted as A) | A (a compound having 10 or more and less than 20 is denoted as A) | 62 nM
9 | CCO[C@@H]1C[C@H]2C(=O)NC3(CCC3)C(=O)N(C)[C@@H](C3CCCC3)C(=O)N(C)[C@H](C(=O)N(C)C)CC(=O)N(C)[C@@H](CC3CC3)C(=O)N[C@@H]([C@@H](C)CC)C(=O)N(C)CC(=O)N(C)[C@H]3C/C=C\CCN(C3=O)[C@@H](Cc3ccc(F)cc3C)C(=O)N(C)CC(=O)N[C@@H](CCc3ccc(Cl)c(Cl)c3)C(=O)N2C1 [PP1476] | A (a compound having 10 or more and less than 20 is denoted as A) | B (a compound having 3 or more and less than 10 is denoted as B) | 216 nM
10 | CCO[C@@H]1C[C@H]2C(=O)NC3(CCC3)C(=O)N(C)[C@@H](C3CCCC3)C(=O)N(C)[C@H](C(=O)N3CCOCC3)CC(=O)N(C)[C@@H](CC3CCCC3)C(=O)N[C@@H]([C@@H](C)CC)C(=O)N(C)CC(=O)N(C)[C@H]3C/C=C\CCN(C3=O)[C@@H](Cc3ccc(C)cc3)C(=O)N(C)CC(=O)N[C@@H](CCc3cc(F)c(C(F)(F)F)c(F)c3)C(=O)N2C1 [PP1394] | AA (a compound having 20 or more is denoted as AA) | A (a compound having 10 or more and less than 20 is denoted as A) | 25.1 nM
11 | CCO[C@@H]1C[C@H]2C(=O)NC3(CCC3)C(=O)N(C)[C@@H](C(CC)CC)C(=O)N(C)[C@H](C)CC(=O)N(C)[C@@H](CC3CC3)C(=O)N[C@@H]([C@@H](C)CC)C(=O)N(C)CC(=O)N(C)[C@H]3C/C=C\CCN(C3=O)[C@@H](Cc3ccc(F)cc3)C(=O)N(C)CC(=O)N[C@@H](CCc3cc(F)c(C(F)(F)F)c(F)c3)C(=O)N2C1 [PP1521] | A (a compound having 10 or more and less than 20 is denoted as A) | B (a compound having 3 or more and less than 10 is denoted as B) | 173 nM
